Data reported in publication PMC5378937 (The Journal of Pharmacology and Experimental Therapeutics, 2016).
Residue numbers refer to the chain shown, from its start. Entries after “also recorded” stand apart in the source; their conditions may differ. Like-named read-outs stand apart in the source and are kept apart here.

Key:
[1] = test system: 5-HT-induced contractions in rat trachea; assay: 5-HT-induced contraction of isolated rat trachea; settings: granisetron 10 µM
Experimental: The trachea was removed from male Wistar albino rats (250–350 g), cut into 2-cm lengths, and mounted on a force transducer with a resting tension of 1.0 g in a 10-ml water-jacketed organ bath containing modified Tyrode’s solution (136 mM NaCl, 5 mM KCl, 0.98 mM MgCl2, 0.36 mM NaH2PO4, 2 mM CaCl2, 11.9 mM NaHCO3, 5.5 mM glucose, pH 7.4) continuously aerated with 95% O2/5% CO2 and kept at 37°C. Contractile responses were recorded using a force transducer (model FT03; Grass Technologies, Quincy, MA) connected to a PC-based data acquisition system (Dataq, PM-1000; DATAQ Instruments Inc., Akron, OH). The experiments were conducted after an equilibration period of 60 minutes and three successive similar contractile responses. Experiments were approved by the local animal ethics committee (protocol number 00084/2014.2).

[2] = test system: 5-HT-evoked contractions of guinea pig ileum; assay: 5-HT-evoked contraction of isolated guinea pig ileum
Experimental: Guinea pig ileum was obtained from adult male guinea pigs (200–300 g). The ileum was cut into 1-cm lengths and mounted longitudinally to a force transducer with a resting tension of 0.5 g in a 10-ml water-jacketed organ bath containing Krebs’ buffer (118 mM NaCl, 4.7 mM KCl, 1.2 mM MgSO4, 1.25 mM CaCl2, 11 mM glucose, 10 mM HEPES, pH 7.2) continuously aerated with 95% O2/5% CO2 and kept at 37°C. The ileum segments were allowed to equilibrate for 10 minutes before the experiments were started, and contractile responses were recorded using LabChart 6 (ADInstruments Ltd., Oxford, UK). […] Following drug applications, the organ bath was flushed twice with fresh Krebs’ solution, and the ileum was allowed to recover for 10 minutes prior to the next application. […] Experiments involving animals were approved by the University of Cambridge Animal Welfare and Ethical Review Body (reference: PHARM 004/15).

5-HT3AT6'S receptors = molecular target: T1, 5-HT3AT6'S receptors (Homo sapiens, UniProt P46098, T279S); assay: Two-electrode voltage clamp in oocytes expressing the 5-HT3AT6'S receptor mutant; type: cell-based; settings: for ΔpEC50 (ΔpIC50 for inhibitors, T6'S vs wild-type): 2 µM 5-HT; for IC50: read-out: pEC50 (pIC50 for inhibitors) at T6'S mutant (converted)
T1 construct: expressed in transfected cells; host or cells: Xenopus oocytes
T1 sequence (P46098 24-478 T279S): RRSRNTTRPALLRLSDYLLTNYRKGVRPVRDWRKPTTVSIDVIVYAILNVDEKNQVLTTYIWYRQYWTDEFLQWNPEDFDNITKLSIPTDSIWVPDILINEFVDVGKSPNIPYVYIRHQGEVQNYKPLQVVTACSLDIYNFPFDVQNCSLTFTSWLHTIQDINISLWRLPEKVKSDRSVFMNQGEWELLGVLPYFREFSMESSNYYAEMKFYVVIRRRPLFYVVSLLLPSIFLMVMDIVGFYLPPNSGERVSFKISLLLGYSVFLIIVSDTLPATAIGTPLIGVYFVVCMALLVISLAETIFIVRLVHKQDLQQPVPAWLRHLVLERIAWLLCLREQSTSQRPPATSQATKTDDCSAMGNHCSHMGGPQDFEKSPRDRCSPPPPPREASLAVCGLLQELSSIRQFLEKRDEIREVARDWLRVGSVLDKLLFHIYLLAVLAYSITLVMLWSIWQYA
Experimental: Microelectrodes were fabricated from borosilicate glass (GC120TF-10; Harvard Apparatus, Edenbridge, Kent, UK) using a two-stage horizontal pull (P-97; Sutter Instrument Company, Novato, CA) and filled with 3 M KCl. Pipette resistances ranged from 0.8 to 2.0 MΩ. Oocytes were placed in a perfusion chamber made from 2-mm-wide × 30-mm-long silicon tubing that was cut in half lengthways (total volume ∼0.1 ml), and were perfused with ND96 at a rate of 12 ml min^−1. Drug application was via a simple gravity-fed system calibrated to run at the same rate. […] A 3-minute wash was used between compound applications. Oils were dissolved in buffer containing 1% DMSO, freshly prepared each day, and constantly stirred during the experiments.
The effects of the compounds on 5-HT3AT6'S receptors were also evaluated. […] Parameters were incorporated into the model that defined changes in pEC50, pIC50, Max0, and pA2 values for 5-HT3AT6'S receptors. These parameters were statistically evaluated as described earlier.
Parameters were included in the model that allowed differences in agonist and inhibitory effects to be quantified and evaluated.

5-HT3 receptor [3] = molecular target: T2, 5-HT3 receptor (Homo sapiens, UniProt P46098); assay: Dual application with bilobalide or diltiazem (allotopic vs syntopic inhibition), oocytes; type: cell-based; parameters: expressed in transfected cells; host or cells: Xenopus oocytes injected with cRNA transcribed from pGEMHE; settings: 100 µM 5-HT
T2 sequence (P46098 24-478): T1 sequence (P46098 24-478 T279S) with S256T
Experimental: Dual application studies were performed as previously described ([Jarvis and Thompson, 2013]). This is a simple method to determine whether two channel blockers share the same binding site (syntopic inhibition) or bind to separate locations (allotopic inhibition). […] Concentrations of the test compounds, BB and DTZ, were selected such that they caused approximately 62% inhibition when used alone. From the results of these experiments, predicted levels of inhibition were derived for both allotopic and syntopic modes of action. These predictions were compared with data obtained experimentally using the same concentrations of the inhibitors acting together. For each oocyte, the change in the amplitude of the 5-HT response over time was monitored and taken into account. Inhibition by drugs was quantified in relation to interpolated control responses for each time point.
The dual application measurements were compared statistically with allotopic and syntopic predictions using a two-way analysis of variance in which the oocyte was included as a random effect (SPSS Statistics 20; IBM, Armonk, NY). Post-hoc testing was with Dunnett’s method, comparing the measured data to each of the predictions.

5-HT3 receptor [4] = molecular target: T2, 5-HT3 receptor; assay: Flow cytometry competition binding with 10 nM fluorescent granisetron (G-FL) in HEK293 cells; parameters: expressed in transfected cells; host or cells: HEK293 cells, transient transfection with pcDNA3.1 construct; settings: concentrations up to 1 mM, n = 3
Experimental: 5-HT3A subunit cDNA was cloned into pcDNA3.1 for expression in HEK293 cells (ThermoFisher Scientific, Waltham, MA). Cells were transiently transfected with this cDNA using polyethyleneimine (25 kDa, linear, powder; Polysciences Inc., Eppelheim, Germany). Thirty microliters of polyethyleneimine (1 mg ml^−1), 5 μg of cDNA, and 1 ml of DMEM were incubated for 10 minutes at room temperature, added dropwise to a 90-mm plate of 70–80% confluent HEK293 cells, and incubated for 2–3 days before use.
HEK293 cells expressing the 5-HT3 receptor were grown in monolayers and harvested from a 90-mm culture dish using 10 ml of Trypsin-EDTA (Sigma-Aldrich) for 10 minutes at 37°C. Digestion was terminated by the addition of 25 ml DMEM + 10% fetal bovine serum, and cells were pelleted at low speed for 2 minutes. […] Competition binding was measured by incubating HEK293 cells with different concentrations of nonlabeled ligands and 10 nM fluorescent granisetron (G-FL). […] The geometric mean was measured at each concentration of test compound and fitted to eq. 1 (see the following section) using a least-squares method (GraphPad Prism v4; GraphPad Software, La Jolla, CA).

[5] = molecular target: T3, human 5-HT3 receptors (5-HT3A) (Homo sapiens, UniProt P46098); assay: Two-electrode voltage clamp of 5-HT-evoked currents in Xenopus oocytes expressing 5-HT3 receptors, nonlinear mixed-effects modeling
T3 sequence (P46098 24-478): T1 sequence (P46098 24-478 T279S) with S256T
Experimental: 5-HT3A subunit cDNA was cloned into pGEMHE for oocyte expression. cRNA was transcribed in vitro from a linearized plasmid cDNA template using the mMessage mMachine Ultra T7 Transcription kit (Ambion, Austin, TX). Stage V and VI oocytes were injected with 50 nl of 100–500 ng µl^−1 cRNA (5–25 ng injected), and currents were recorded 1–4 days postinjection.
Specifically, NONMEM allows the modeling of the relationship between drug and response, and importantly, the random between-oocyte variance, which is considerable. NONMEM enabled a single unified model to be created that included all electrophysiological agonist and antagonist data. […] The ability to allow for between-oocyte variance enabled raw peak currents to be analyzed, rather than normalized values. Normalization can obscure relationships between parameters, resulting in inaccurate and imprecise estimates of drug effects. Differences in peak currents and agonist potency between different oocytes were modeled with population variances (ω^2) associated with model parameters.
A structural model defined the relationship between the independent variables (i.e., agonist and antagonist concentrations) and the peak current (dependent variable).
The effect of time on the agonist response was modeled linearly as:(2) [drawing 2] where Max0 = as in eq. 1; MaxT = PRED when [A] = ∞ at time T; T = time (hours) from start of individual experiment; and nT = change in response per hour expressed as a proportion of the response at T = 0 (nT = 0 represents no change; nT = −0.1 represents a reduction of 10%, and nT = 0.1 represents an increase of 10% per hour).
The effect of the compounds on MaxT was modeled as follows:(3) [drawing 3] where MaxT = PRED when [A] = ∞ in the absence of drug D at time T (eq. 2); Max(D) = PRED when [A] = ∞ in the presence of drug D at time T; [D] = concentration of inhibitor drug; pIC50 = −log10[D] in the presence of which Max(D) = MaxT/2; and nH(D) = inhibitor Hill coefficient. (This model assumes that, when [D] = ∞, PRED = 0.)

5-HT3 receptors = molecular target: 5-HT3 receptors; parameters: method as in Ashoor et al., 2013; settings: ref Ashoor et al., 2013; cited from earlier work
[6] = IC50 (inhibition of 5-HT-evoked currents), wild-type, from nonlinear mixed-effects model
[7] = IC50 derived from normalized data, wild-type, normalized data instead of mixed-effects model
[8] = wild-type, population parameter estimate
[9] = wild-type, population parameter estimate, listed as Eucalyptol

SMILES | Agonist action when applied alone (5-HT3AT6'S receptors) | Reduction of inhibitory potency compared with wild-type receptors (5-HT3AT6'S receptors) | ΔpEC50 (ΔpIC50 for inhibitors, T6'S vs wild-type) (5-HT3AT6'S receptors) | IC50 (5-HT3AT6'S receptors) [µM] | Measured dual inhibition with bilobalide compared with predictions (5-HT3 receptor [3]) | Measured dual inhibition with diltiazem compared with predictions (5-HT3 receptor [3]) | Competition with G-FL binding (5-HT3 receptor [4]) | IC50 [5, 6] [µM] | IC50 [5, 7] [µM] | Effect on agonist (5-HT) pEC50 (interpretation of nG hypothesis test) ([5]; wild-type) | nH (inhibitor Hill coefficient) [5, 8] | also measured
CN1C2CCCC1CC(NC(=O)c1nn(C)c3ccccc13)C2 (centres unmarked) [granisetron] | – | – | – | – | – | – | – | – | – | – | – | Effect on 5-HT-induced contractions [1]: substantially inhibited; Effect on 5-HT-evoked contractions [2]: inhibited
C=CC(C)(O)CCC=C(C)C (centres unmarked) [linalool] | did not evoke currents; also recorded: no agonist action | approximately 2 fold | −0.34 ± 0.04 | 309 | greater than the allotopic prediction | greater than the allotopic prediction | unaffected; also recorded: no competition | 141 | 83 | No/weak evidence that linalool changes agonist pEC50 | 2.2 | nH (inhibitor Hill coefficient) ([5]; wild-type, population parameter estimate, listed as Linalool): 2.19 ± 0.26
CC12CCC(CC1)C(C)(C)O2 [eucalyptol] | did not evoke currents; also recorded: no agonist action | approximately 2 fold | −0.45 ± 0.22 | 724 | – | greater than the allotopic prediction | unaffected; also recorded: no competition | 258 | 174 | Strong evidence that eucalyptol changes agonist pEC50 | 1.0 | Effect on 5-HT pEC50 at T6'S (5-HT3AT6'S receptors): did not alter the 5-HT pEC50; Kb [5]: 813 µM; nS (Schild coefficient) [5, 8]: 1.7; pA2 (shift in agonist pEC50) [5, 8]: 3.09; nH (inhibitor Hill coefficient) [5, 9]: 1.04 ± 0.11; nS (Schild coefficient) [5, 9]: 1.70 ± 0.24
CC1CCC(C(C)C)C(O)C1 (centres unmarked) [menthol] | – | – | – | – | – | – | – | – | – | – | – | IC50 (5-HT3 receptors): 163 µM
NCCc1c[nH]c2ccc(O)cc12 [5-HT, 5-hydroxytryptamine, reference compound] | – | – | – | – | – | – | – | – | – | – | – | Increase in 5-HT sensitivity in the T6'S mutant (5-HT3AT6'S receptors): 2 fold; ΔpEC50 (T6'S vs wild-type) (5-HT3AT6'S receptors; agonist 5-HT): 0.35 ± 0.07; 5-HT nH (agonist Hill coefficient) ([5]; wild-type): 2.94 ± 0.13; Max (maximal 5-HT peak current) [5, 8]: 4.94 ± 0.64 µA
CC(C)=CCCC(C)=CC=O (mixture of isomers) [citral] | did not evoke currents; also recorded: no agonist action | approximately 2 fold | −0.36 ± 0.10 | 282 | no different from the allotopic predictions | no different from the allotopic predictions | unaffected; also recorded: no competition | 120 | 98 | – | 1.3 | Effect on agonist (5-HT) pEC50 (interpretation of nG hypothesis test) [5]: No evidence that citral changes agonist pEC50; nH (inhibitor Hill coefficient) ([5]; wild-type, population parameter estimate, listed as Citral): 1.34 ± 0.08
